pKi: −log10 of the molar value.
Legend:
[1] = Compound was tested for the toxic effect in mice after intraperitoneal injection; format: ADME, organism-based; details: mouse, in vivo, ip
[2] = In vitro inhibition of 3-deoxy-D-manno-2-octulosonate cytidylyltransferase (CMP-KDO) synthetase a key enzyme in the biosynthesis of the lipopolysaccharide (LPS) of Gram-negative bacteria
[3] = In vitro inhibition of (3-deoxy-D-manno-2-octulosonate cytidylyltransferase) CMP-KDO synthetase a key enzyme in the biosynthesis of the lipopolysaccharide (LPS) of Gram-negative bacteria; parameters: species or system Escherichia coli

Structure (SMILES)	LD50 [1] [mg/kg]	also measured
CSSc1cccc2cccc(COC(C)=O)c12	> 1000	
c1cc2c3c(cccc3c1)SC2	~640	
NC[C@@H](O)[C@H]1O[C@H](C(=O)O)C[C@@H](O)[C@H]1O		pKi [2]: 5.40
O=C(O)[C@@H]1C[C@@H](O)[C@@H](O)[C@@H]([C@H](O)CO)O1		pKi [3]: 4.92

From ChEMBL document CHEMBL1124615, “A novel prodrug of an impermeant inhibitor of 3-deoxy-D-manno-2-octulosonate cytidylyltransferase has antibacterial activity” (J Med Chem, 1989)
